According to US20130252930A1 (BIOMARIN PHARMACEUTICAL INC., priority 2010, published 2013):

Each compound was assayed against T1, CYP17 (human testicular microsome) (Homo sapiens, UniProt P05093) (assay: CYP17 enzymatic assay (% inhibition at 10 nM), version 1 (Biological Example 5)). Details: 10 nM compound, DHEA by ELISA, read-out: Biological Example No. 5: CYP17 percent inhibition at 10 nM (version 1).
T1 construct: using microsomal fraction from human testis (Celsis Cat #S00110) as the enzyme source; tissue Celsis S00110; host or cells: human testis microsomal fraction
T1 sequence (P05093 1-508): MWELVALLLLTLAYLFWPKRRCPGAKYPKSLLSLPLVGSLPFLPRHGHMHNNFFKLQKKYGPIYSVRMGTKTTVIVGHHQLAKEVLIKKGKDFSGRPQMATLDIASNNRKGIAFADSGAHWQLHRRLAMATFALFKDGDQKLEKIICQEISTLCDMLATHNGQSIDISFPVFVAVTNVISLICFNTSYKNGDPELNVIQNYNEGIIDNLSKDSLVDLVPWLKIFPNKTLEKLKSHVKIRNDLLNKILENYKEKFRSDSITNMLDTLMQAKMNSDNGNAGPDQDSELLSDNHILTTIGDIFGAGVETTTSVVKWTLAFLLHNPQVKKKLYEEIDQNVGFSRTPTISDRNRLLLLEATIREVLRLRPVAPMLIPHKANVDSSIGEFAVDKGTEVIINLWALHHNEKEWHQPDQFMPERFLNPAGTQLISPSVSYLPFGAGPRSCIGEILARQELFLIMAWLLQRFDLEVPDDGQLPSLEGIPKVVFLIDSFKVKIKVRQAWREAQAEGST
Type: biochemical

inhibition at 0.01 µM	Compound
1 to 50%	C[C@]12CCCNCC1CCC1C2CC[C@]2(C)C(n3ccnn3)=CCC12 (stereo partly drawn) [Compound 140, (5aR,7aS)-5a,7a-dimethyl-8-(1H-1,2,3-triazol-1-yl)-1,2,3,4,5,5a,5b,6,7,7a,10,10a,10b,11,12,12a-hexadecahydrocyclopenta[5,6]naphtho[2,1-c]azepine]
< 1%	CC(=O)N1CCC[C@@]2(C)[C@@H](CC[C@@H]3[C@@H]2CC[C@]2(C)C(n4ccnn4)=CC[C@@H]32)C1 [Compound 141, 1-((5aR,5bS,7aS,10aS,10bR,12aR)-5a,7a-dimethyl-8-(1H-1,2,3-triazol-1-yl)-3,4,5,5a,5b,6,7,7a,10,10a,10b,11,12,12a-tetradecahydrocyclopenta[5,6]naphtho[2,1-c]azepin-2(1H)-yl)ethanone]
1 to 50%	COc1cncc(C2=CC[C@H]3[C@@H]4CCC5=CCN(C)CC[C@]5(C)[C@H]4CC[C@]23C)c1 [Compound 148]
1 to 50%	CCCOc1cncc(C2=CC[C@H]3[C@@H]4CCC5=CCN(C)CC[C@]5(C)[C@H]4CC[C@]23C)c1 [Compound 149]
1 to 50%	CCc1cncc(C2=CC[C@H]3[C@@H]4CCC5=CCN(C)CC[C@]5(C)[C@H]4CC[C@]23C)c1 [Compound 150]
1 to 50%	CN1CC[C@@]2(C)C(=CC1=O)CC[C@@H]1[C@@H]2CC[C@]2(C)C(n3cnc4ccccc43)=CC[C@@H]12 [Compound 155]
50 to 80%	C[C@]12CC[C@H]3[C@@H](CC[C@H]4CNC(=O)CC[C@@]43C)C1=CC=C2c1cccnc1 [Compound 166, (5aR,5bS,7aS,10bR,12aR)-5a,7a-dimethyl-8-(pyridin-3-yl)-1,2,5,5a,5b,6,7,7a,10b,11,12,12a-dodecahydrocyclopenta[5,6]naphtho[2,1-c]azepin-3(4H)-one]
1 to 50%	C[C@]12CC[C@H]3[C@@H](CCC4CC(=O)NCC[C@@]43C)C1=CC=C2n1ccnn1 (stereo partly drawn) [Compound 178, (5aS,5bS,7aS,10bR)-5a,7a-dimethyl-8-(1H-1,2,3-triazol-1-yl)-3,4,5,5a,5b,6,7,7a,10b,11,12,12a-dodecahydrocyclopenta[5,6]naphtho[1,2-d]azepin-2(1H)-one]
1 to 50%	C[C@]12CC[C@H]3[C@@H](CCC4CNC(=O)CC[C@@]43C)C1=CC=C2n1ccnn1 (stereo partly drawn) [Compound 179, (5aR,5bS,7aS,10bR)-5a,7a-dimethyl-8-(1H-1,2,3-triazol-1-yl)-1,2,5,5a,5b,6,7,7a,10b,11,12,12a-dodecahydrocyclopenta[5,6]naphtho[2,1-c]azepin-3(4H)-one]
1 to 50%	Cc1cncc(C2=CC[C@H]3[C@@H]4CCC5N(C)C(=O)COC[C@]5(C)[C@H]4CC[C@]23C)c1 (stereo partly drawn) [Compound 445, (5aR,5bS,7aS,10aS,10bS)-1,5a,7a-trimethyl-8-(5-methylpyridin-3-yl)-5,5a,5b,6,7,7a,10,10a,10b,11,12,12a-dodecahydro-1H-cyclopenta[5,6]naphtho[2,1-e][1,4]oxazepin-2(3H)-one]
1 to 50%	Cc1cncc(C2=CCC3C4CCC5=CN(C)CCC[C@]5(C)C4CC[C@]23C)c1 (stereo partly drawn) [Compound 446, (5aR,7aS)-2,5a,7a-trimethyl-8-(5-methylpyridin-3-yl)-2,3,4,5,5a,5b,6,7,7a,10,10a,10b,11,12-tetradecahydrocyclopenta[5,6]naphtho[2,1-c]azepine]

Second part, the compound before the results:

Compound	inhibition at 0.01 µM
COc1cncc(C2=CC[C@H]3[C@@H]4CC[C@H]5CCCCC[C@]5(C)[C@H]4CC[C@]23C)c1 [Compound 92, 3-((3aS,3bR,5aR,10aS,10bS,12aS)-10a,12a-dimethyl-3,3a,3b,4,5,5a,6,7,8,9,10,10a,10b,11,12,12a-hexadecahydrocyclohepta[a]cyclopenta[f]naphthalen-1-yl)-5-methoxypyridine]	50 to 80%
CCc1cncc(C2=CC[C@H]3[C@@H]4CC[C@H]5CCCCC[C@]5(C)[C@H]4CC[C@]23C)c1 [Compound 93, 3-((3aS,3bR,5aR,10aS,10bS,12aS)-10a,12a-dimethyl-3,3a,3b,4,5,5a,6,7,8,9,10,10a,10b,11,12,12a-hexadecahydrocyclohepta[a]cyclopenta[f]naphthalen-1-yl)-5-ethylpyridine]	1 to 50%
CCOc1cncc(C2=CC[C@H]3[C@@H]4CC[C@H]5CCCCC[C@]5(C)[C@H]4CC[C@]23C)c1 [Compound 94, 3-((3aS,3bR,5aR,10aS,10bS,12aS)-10a,12a-dimethyl-3,3a,3b,4,5,5a,6,7,8,9,10,10a,10b,11,12,12a-hexadecahydrocyclohepta[a]cyclopenta[f]naphthalen-1-yl)-5-ethoxypyridine]	1 to 50%
Cc1ccncc1C1=CC[C@H]2[C@@H]3CC[C@H]4CCCCC[C@]4(C)[C@H]3CC[C@]12C [Compound 95, 3-((3aS,3bR,5aR,10aS,10bS,12aS)-10a,12a-dimethyl-3,3a,3b,4,5,5a,6,7,8,9,10,10a,10b,11,12,12a-hexadecahydrocyclohepta[a]cyclopenta[f]naphthalen-1-yl)-4-methylpyridine]	1 to 50%
C[C@]12CCCCC[C@@H]1CC[C@@H]1[C@@H]2CC[C@]2(C)C(c3cnccc3Cl)=CC[C@@H]12 [Compound 96, 4-chloro-3-((3aS,3bR,5aR,10aS,10bS,12aS)-10a,12a-dimethyl-3,3a,3b,4,5,5a,6,7,8,9,10,10a,10b,11,12,12a-hexadecahydrocyclohepta[a]cyclopenta[f]naphthalen-1-yl)pyridine]	1 to 50%
CCOc1cncc(C2=CC[C@H]3[C@@H]4CCC5N(C)C(=O)COC[C@]5(C)[C@H]4CC[C@]23C)c1 (stereo partly drawn) [Compound 99, (5aR,5bS,7aS,10aS,10bS)-8-(5-ethoxypyridin-3-yl)-1,5a,7a-trimethyl-5,5a,5b,6,7,7a,10,10a,10b,11,12,12a-dodecahydro-1H-cyclopenta[5,6]naphtho[2,1-e][1,4]oxazepin-2(3H)-one]	1 to 50%
C[C@]12CCNC(=O)CC[C@@H]1CC[C@@H]1[C@@H]2CC[C@]2(C)C(c3cccnc3)=CC[C@@H]12 [Compound 101, (6aS,6bS,8aS,11aS,11bR,13a5)-6a,8a-dimethyl-9-(pyridin-3-yl)-4,5,6,6a,6b,7,8,8a,11,11a,11b,12,13,13a-tetradecahydro-1H-cyclopenta[5,6]naphtho[1,2-d]azocin-3(2H)-one]	50 to 80%
C[C@]12CC(=O)C[C@@H]1CC[C@@H]1[C@@H]2CC[C@]2(C)C(n3ccnn3)=CC[C@@H]12 [Compound 110, (3aS,5aS)-3a,5a-dimethyl-6-(1H-1,2,3-triazol-1-yl)-3,3a,3b,4,5,5a,8,8a,8b,9,10,10a-dodecahydrodicyclopenta[a,f]naphthalen-2(1H)-one]	1 to 50%
CCOc1cncc(C2=CC[C@H]3[C@@H]4CC[C@H]5CCOCC[C@]5(C)[C@H]4CC[C@]23C)c1 [Compound 124, 3-((5aS,5bS,7aS,10aS,10bR,12aS)-5a,7a-dimethyl-2,4,5,5a,5b,6,7,7a,10,10a,10b,11,12,12a-tetradecahydro-1H-cyclopenta[5,6]naphtho[1,2-d]oxepin-8-yl)-5-ethoxypyridine]	50 to 80%
C[C@]12CCC(=O)NCC1CCC1C2CC[C@]2(C)C(n3ccnc3)=CCC12 (stereo partly drawn) [Compound 136, (5aR,7aS)-8-(1H-imidazol-1-yl)-5a,7a-dimethyl-1,2,5,5a,5b,6,7,7a,10,10a,10b,11,12,12a-tetradecahydrocyclopenta[5,6]naphtho[2,1-c]azepin-3(4H)-one]	50 to 80%
C[C@]12CCC(=O)NC[C@@H]1CC[C@@H]1[C@@H]2CC[C@]2(C)C(n3ccnn3)=CC[C@@H]12 [Compound 138, (5aR,5bS,7aS,10aS,10bR,12aR)-5a,7a-dimethyl-8-(1H-1,2,3-triazol-1-yl)-1,2,5,5a,5b,6,7,7a,10,10a,10b,11,12,12a-tetradecahydrocyclopenta[5,6]naphtho[2,1-c]azepin-3(4H)-one]	1 to 50%
C[C@]12CCNCCC1CCC1C2CC[C@]2(C)C(n3ccnn3)=CCC12 (stereo partly drawn) [Compound 139, (5aS,7aS)-5a,7a-dimethyl-8-(1H-1,2,3-triazol-1-yl)-1,2,3,4,5,5a,5b,6,7,7a,10,10a,10b,11,12,12a-hexadecahydrocyclopenta[5,6]naphtho[1,2-d]azepine]	1 to 50%

Same assay, conditions: compound at 10 nM, read-out: CYP17 enzymatic assay % inhibition at 10 nM (Biological Example No. 5)

Compound	inhibition at 0.01 µM
C[C@]12CC[C@H]3[C@@H](CC[C@H]4CNC(=O)CC[C@@]43C)C1=CC=C2n1ccnc1 [Compound 448, (5aR,5bS,7aS,10bR,12aR)-8-(1H-imidazol-1-yl)-5a,7a-dimethyl-1,2,5,5a,5b,6,7,7a,10b,11,12,12a-dodecahydrocyclopenta[5,6]naphtho[2,1-c]azepin-3(4H)-one]	50 to 80%
COC1CC[C@@]2(C)[C@@H](CC[C@@H]3[C@@H]2CC[C@]2(C)C(c4cccnc4)=CC[C@@H]32)C1 (stereo partly drawn) [Compound 449, 3-((5S,8R,9S,10S,13S,14S)-3-methoxy-10,13-dimethyl-2,3,4,5,6,7,8,9,10,11,12,13,14,15-tetradecahydro-1H-cyclopenta[a]phenanthren-17-yl)pyridine]	1 to 50%
COC1CC[C@@]2(C)[C@@H](CC[C@@H]3[C@@H]2CC[C@]2(C)C(c4cncc(C)c4)=CC[C@@H]32)C1 (stereo partly drawn) [Compound 450, 3-((5S,8R,9S,10S,13S,14S)-3-methoxy-10,13-dimethyl-2,3,4,5,6,7,8,9,10,11,12,13,14,15-tetradecahydro-1H-cyclopenta[a]phenanthren-17-yl)-5-methylpyridine]	1 to 50%
